Reference: patent US20220033396A1, “FURTHER HETEROAROMATIC COMPOUNDS HAVING ACTIVITY AGAINST RSV” (priority 2018, published 2022)

Assays:
in vitro = details: human
rgRSV224 virus = assay: microbe, parasite or virus in culture; format: cell-based; details: human respiratory syncytial virus, 72 h; rgRSV224 virus (MOI=1), HeLa cells, GFP expression three days post-virus exposure; averaged data of several repeat experiments; read-out: RSV HELA EC50

SMILES	CC50 at 3 days (in vitro) [µM]	EC50 (rgRSV224 virus) [µM]
C[C@@H]1c2ccccc2CCN1C(=O)c1cc(C2CC2)c2nc(-c3ccc(NC(=O)N4CC[C@@H](O)C4)cc3F)cn2c1 [Compound 5, (3R)-N-(4-{8-Cyclopropyl-6-[(1R)-1-methyl-1,2,3,4-tetrahydroisoquinoline-2-carbonyl]imidazo[1,2-a]pyridin-2-yl}-3-fluorophenyl)-3-hydroxypyrrolidine-1-carboxamide]	40.1	0.048
C[C@@H]1c2ccccc2CCN1C(=O)c1cc(C2CC2)c2nc(-c3ccc(NC(=O)N4CC(O)C4)cc3F)cn2c1 [Compound 30, (R)-N-(4-(8-cyclopropyl-6-(1-methyl-1,2,3,4-tetrahydroisoquinoline-2-carbonyl)imidazo[1,2-a]pyridin-2-yl)-3-fluorophenyl)-3-hydroxyazetidine-1-carboxamide]	43.4	0.089
CNC(=O)[C@H]1CCN(c2ccc(-c3cn4cc(C(=O)N5CCc6ccccc6[C@H]5C)cc(C5CC5)c4n3)c(F)c2)C1 [Compound 11, (3S)-1-(4-{8-Cyclopropyl-6-[(1R)-1-methyl-1,2,3,4-tetrahydroisoquinoline-2-carbonyl]imidazo[1,2-a]pyridin-2-yl}-3-fluorophenyl)-N-methylpyrrolidine-3-carboxamide]	> 100	0.062
C[C@@H]1c2ccccc2CCN1C(=O)c1cc(C2CC2)c2nc(-c3ccc(C4C[C@@H]4C(=O)NS(C)(=O)=O)cc3F)cn2c1 (relative stereo) [Compound 8, Trans 2-(4-{8-Cyclopropyl-6-[(1R)-1-methyl-1,2,3,4-tetrahydroisoquinoline-2-carbonyl]imidazo[1,2-a]pyridin-2-yl}-3-fluorophenyl)-N-methanesulfonylcyclopropane-1-carboxamide]	69.1	0.793
C[C@@H]1c2ccccc2CCN1C(=O)c1cc(C2CC2)c2nc(-c3ccc(NC(=O)N4CC[C@@H](O)C4)cc3F)cn2n1 [Compound 37, (R)-N-(4-(8-cyclopropyl-6-((R)-1-methyl-1,2,3,4-tetrahydroisoquinoline-2-carbonyl)imidazo[1,2-b]pyridazin-2-yl)-3-fluorophenyl)-3-hydroxypyrrolidine-1-carboxamide]	32.2	–
CC1c2ccsc2CCN1C(=O)c1cc(C2CC2)c2nc(-c3ccc(NC(=O)N4CC[C@@H](O)C4)cc3F)cn2n1 (single isomer, unassigned) [Compound 38, (R)-N-(4-(8-cyclopropyl-6-((R*)-4-methyl-4,5,6,7-tetrahydrothieno[3,2-c]pyridine-5-carbonyl)imidazo[1,2-b]pyridazin-2-yl)-3-fluorophenyl)-3-hydroxypyrrolidine-1-carboxamide]	35.9	0.012
C[C@@H]1c2ccccc2CCN1C(=O)c1cc(C2CC2)c2nc(-c3ccc4c(c3F)C=C(C(=O)O)CO4)cn2c1 [Compound 29, (R)-6-(8-cyclopropyl-6-(1-methyl-1,2,3,4-tetrahydroisoquinoline-2-carbonyl)imidazo[1,2-a]pyridin-2-yl)-5-fluoro-2H-chromene-3-carboxylic Acid]	49.5	0.146
CCc1cc(C(=O)N2CCc3ccccc3[C@H]2C)nn2cc(-c3ccc(N4CC(O)C4)cc3F)nc12 [Compound 35, (R)-(8-ethyl-2-(2-fluoro-4-(3-hydroxyazetidin-1-yl)phenyl)imidazo[1,2-b]pyridazin-6-yl)(1-methyl-3,4-dihydroisoquinolin-2(1H)-yl)methanone]	16.3	0.021
C[C@@H]1CCCCCN1C(=O)c1cc(C2CC2)c2nc(-c3ccc([C@H]4C[C@@H]4C(=O)O)cc3F)cn2n1 [Compound 33, (1S,2S)-2-(4-{8-Cyclopropyl-6-[(2R)-2-methylazepane-1-carbonyl]imidazo[1,2-b]pyridazin-2-yl}-3-fluorophenyl)cyclopropane-1-carboxylic Acid]	50.5	0.067
CCc1cc(C(=O)N2CCc3sc(F)cc3C2C)nn2cc(-c3ccc(NC(=O)N4CC[C@@H](O)C4)cc3F)nc12 (single isomer, unassigned) [Compound 40, (R)-N-(4-(8-ethyl-6-((R*)-2-fluoro-4-methyl-4,5,6,7-tetrahydrothieno[3,2-c]pyridine-5-carbonyl)imidazo[1,2-b]pyridazin-2-yl)-3-fluorophenyl)-3-hydroxypyrrolidine-1-carboxamide]	29.9	0.017
C[C@@H]1c2ccccc2CCN1C(=O)c1cc(C2CC2)c2nc(-c3ccc(N4CC[C@H](C(N)=O)C4)cc3F)cn2c1 [Compound 10, (3S)-1-(4-{8-Cyclopropyl-6-[(1R)-1-methyl-1,2,3,4-tetrahydroisoquinoline-2-carbonyl]imidazo[1,2-a]pyridin-2-yl}-3-fluorophenyl)pyrrolidine-3-carboxamide]	70.4	0.049
C[C@@H]1c2ccccc2CCN1C(=O)c1cn2cc(-c3ccc(NC(=O)N4CC[C@@H](O)C4)cc3F)nc2c(C2CC2)n1 [Compound 47, (R)-N-(4-(8-cyclopropyl-6-((R)-1-methyl-1,2,3,4-tetrahydroisoquinoline-2-carbonyl)imidazo[1,2-a]pyrazin-2-yl)-3-fluorophenyl)-3-hydroxypyrrolidine-1-carboxamide]	> 100	2.77
C[C@@H]1c2ccccc2CCN1C(=O)c1cc(C2CC2)c2nc(-c3ccc(N4C[C@H](O)[C@@H](O)C4)cc3F)cn2n1 [Compound 51, (8-cyclopropyl-2-(4-((3 S,4 S)-3,4-dihydroxypyrrolidin-1-yl)-2-fluorophenyl)imidazo[1,2-b]pyridazin-6-yl)((R)-1-methyl-3,4-dihydroisoquinolin-2(1H)-yl)methanone]	38	0.013
CCc1cc(C(=O)N2CCc3ccccc3[C@H]2C)nn2cc(-c3ccc4c(c3F)C=C(C(N)=O)CO4)nc12 [Compound 45, (R)-6-(8-ethyl-6-(1-methyl-1,2,3,4-tetrahydroisoquinoline-2-carbonyl)imidazo[1,2-b]pyridazin-2-yl)-5-fluoro-2H-chromene-3-carboxamide]	> 100	0.105
C[C@@H]1c2ccccc2CCN1C(=O)c1cn2cc(-c3ccc(N4C[C@H](O)[C@@H](O)C4)cc3F)nc2c(C2CC2)n1 [Compound 48, (8-cyclopropyl-2-(4-((3 S,4 S)-3,4-dihydroxypyrrolidin-1-yl)-2-fluorophenyl)imidazo[1,2-a]pyrazin-6-yl)((R)-1-methyl-3,4-dihydroisoquinolin-2(1H)-yl)methanone]	58.8	3.77
C[C@@H]1c2ccccc2CCN1C(=O)c1cc(C2CC2)c2nc(-c3ccc(N4CC(C(=O)NS(C)(=O)=O)C4)cc3F)cn2c1 [Compound 28, 1-(4-{8-Cyclopropyl-6-[(1R)-1-methyl-1,2,3,4-tetrahydroisoquinoline-2-carbonyl]imidazo[1,2-a]pyridin-2-yl}-3-fluorophenyl)-N-methanesulfonylazetidine-3-carboxamide]	> 100	3.11
C[C@@H]1c2ccccc2CCN1C(=O)c1cc(-c2cccc(F)c2)c2nc(-c3ccc(NC(=O)N4CC[C@@H](O)C4)cc3F)cn2n1 [Compound 43, (R)-N-(3-fluoro-4-(8-(3-fluorophenyl)-6-((R)-1-methyl-1,2,3,4-tetrahydroisoquinoline-2-carbonyl)imidazo[1,2-b]pyridazin-2-yl)phenyl)-3-hydroxypyrrolidine-1-carboxamide]	> 100	0.022
C[C@@H]1c2ccccc2CCN1C(=O)c1cc(C2CC2)c2nc(-c3ccc(-n4cc(C(=O)O)cn4)cc3F)cn2c1 [Compound 25, 1-(4-{8-Cyclopropyl-6-[(1R)-1-methyl-1,2,3,4-tetrahydroisoquinoline-2-carbonyl]imidazo[1,2-a]pyridin-2-yl}-3-fluorophenyl)-1H-pyrazole-4-carboxylic Acid]	51.3	0.369
CCc1cc(C(=O)N(CC)C(C)C(C)C)nn2cc(-c3ccc(NC(=O)N4CC[C@@H](O)C4)cc3F)nc12 (stereo partly drawn) [Compound 42, N,8-diethyl-2-(2-fluoro-4-((R)-3-hydroxypyrrolidine-1-carboxamido)phenyl)-N-(3-methylbutan-2-yl)imidazo[1,2-b]pyridazine-6-carboxamide]	46.8	5.55
C[C@@H]1c2ccccc2CCN1C(=O)c1cc(N(C)C)c2nc(-c3ccc(N4CC[C@H](C(N)=O)C4)cc3F)cn2c1 [Compound 19, (3S)-1-{4-[8-(Dimethylamino)-6-[(1R)-1-methyl-1,2,3,4-tetrahydroisoquinoline-2-carbonyl]imidazo[1,2-a]pyridin-2-yl]-3-fluorophenyl}pyrrolidine-3-carboxylamide]	43.9	0.141
CCc1cc(C(=O)N2CCc3ccccc3[C@H]2C)nn2cc(-c3ccc(N4C[C@H](O)[C@@H](O)C4)cc3F)nc12 [Compound 34, (2-(4-((3 S,4 S)-3,4-dihydroxypyrrolidin-1-yl)-2-fluorophenyl)-8-ethylimidazo[1,2-b]pyridazin-6-yl)((R)-1-methyl-3,4-dihydroisoquinolin-2(1H)-yl)methanone]	24.5	0.012
C[C@@H]1c2ccsc2CCN1C(=O)c1cc(C2CC2)c2nc(-c3ccc(N4CC[C@H](C(N)=O)C4)cc3F)cn2c1 (single isomer, unassigned) [Compound 13, (3S)-1-(4-{8-Cyclopropyl-6-[(4*R)-4-methyl-4,5,6,7-tetrahydro-thieno[3,2-c]pyridine-5-carbonyl]imidazo[1,2-a]pyridin-2-yl}-3-fluorophenyl)pyrrolidine-3-carboxamide]	77.1	0.037
CCc1cc(C(=O)N2CCc3ccccc3[C@H]2C)nn2cc(-c3ccc(NC(=O)N4CC[C@@H](O)C4)cc3F)nc12 [Compound 39, (R)-N-(4-(8-ethyl-6-((R)-1-methyl-1,2,3,4-tetrahydroisoquinoline-2-carbonyl)imidazo[1,2-b]pyridazin-2-yl)-3-fluorophenyl)-3-hydroxypyrrolidine-1-carboxamide]	29.3	–
